# Experimental data as given in the SangsterLogP compilation.
# Experiment: method code SF-AS, from DOI: 10.1016/0048-3575(87)90042-3
row,SMILES,logP
1,Cc1cccc([N+](=O)[O-])c1C(=O)NC(=O)Nc1ccc(Cl)cc1,3.75
2,COc1ccccc1C(=O)NC(=O)Nc1ccc(Cl)cc1,4.35
3,NC(=O)c1c(F)cccc1F,0.25
4,COc1ccccc1C(N)=O,0.84
5,CCNC(=O)NC(=O)c1ccccc1,1.92
6,NC(=O)Nc1ccccc1,0.83
7,O=C(NC(=O)c1ccccc1)Nc1ccccc1,3.39
8,CC(=O)NC(=O)Nc1ccccc1,1.6
9,CNC(=O)NC(=O)c1ccccc1,1.27
10,Cc1cccc([N+](=O)[O-])c1C(N)=O,0.12

# Experiment: method code SF-GLC, from DOI: 10.1016/0048-3575(87)90042-3
row,SMILES,logP
1,CCNC(=O)NC(C)=O,-0.01
2,CNC(=O)NC(C)=O,-0.7
3,CNC(N)=O,-1.4
